From PubChem BioAssay AID463181 (University of Pittsburgh Molecular Library Screening Center, 2010)
Inconclusive results are not listed. Calls of active or inactive are those of the source.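 How the source made its calls: active means compounds with IC50 under 50 µM in each of two repeat runs and on average; inconclusive means just one of the two runs above 50 µM; inactive means both runs and average above 50 µM.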

Assays:
[1] = test system: L929 zVAD necroptosis rescue, ATP luminescence, 24 h; assay: L929 protection from caspase-blocker death, IC50 – L929 cells, duplicate IC50, dose response (AID 463181)
[2] = as above; conditions: L929 zVAD necroptosis rescue, ATP luminescence, 24 h; inhibition of cell death; at 50 µM; stronger effect = higher value

SMILES | IC50 [1] | inhibition [2] [%]
CCN1CCN(Cc2ccc(NC(=O)c3cc(NC(=O)c4cnn(-c5ccccc5)c4N)cc(OC)c3)cc2C(F)(F)F)CC1 | 9.96 µM | 80.3
Cc1ccc(C2CC(=O)NC(SCC(=O)Nc3nccs3)=C2C#N)cc1 (stereo not drawn) | 0.251 µM | 80.8
CC(=O)Nc1ccc(/C=N/Nc2nc3ccccc3s2)cc1 | 18.8 µM | 70.2
Cc1[nH]c2ccccc2c1/C=N/Nc1ccccn1 | 15 µM | 92.7
CN(CC1CCCO1)S(=O)(=O)c1ccc(C(=O)Nc2nccs2)cc1 (stereo not drawn) | 7.39 µM | 97.5
CCN1CCN(Cc2ccc(NC(=O)c3ccc(C)c(NC(=O)c4csc(-c5ccncc5)n4)c3)cc2C(F)(F)F)CC1 | 5.9 µM | 90.1
COc1ccc(/C=N/Nc2nc3ccccc3s2)cc1O | 17.3 µM | 72.2
Cc1cc(N/N=C/c2ccncc2)nc2ccccc12 | 18.5 µM | 81.6
O=C(CCl)Nc1cc(SCC(O)CO)cc([N+](=O)[O-])c1 (stereo not drawn) | 14.4 µM | 94.4
Cc1ccc(/C=N\Nc2nc3ccc(Cl)cc3[nH]2)o1 | > 20 µM (inactive) | 0.613
Brc1ccc(COn2ccnc2)cc1 | 16.8 µM | 79.8
CCN1C(=O)/C(=C/c2ccc(C)s2)NC1=S | 2.05 µM | 88.7
CCN1CCN(Cc2ccc(NC(=O)c3ccc(C)c(NC(=O)c4nccnc4N)c3)cc2C(F)(F)F)CC1 | 1.46 µM | 74
CCc1cccc2c(C(=O)COC(=O)c3ccc(O)cc3)c[nH]c12 | > 20 µM (inactive) | 1.41
O=C(CSc1nnnn1-c1ccc2c(c1)OCCO2)Nc1nc2c(s1)CCCC2 | > 20 µM (inactive) | 0.775
Cc1cnc(NC(=O)c2cc3c(s2)CCCC3)s1 | > 20 µM (inactive) | 10.4
O=C(Nc1nccs1)c1ccc(S(=O)(=O)NCc2cccs2)cc1 | > 20 µM (inactive) | 2.91
O=C1C=CC(O)(c2cc(=O)c3c(O)cc(O)cc3o2)C=C1 | 10.1 µM | 78.5
C=C1C(=O)[C@@]23[C@H](O)C[C@@H]4C(C)(C)CC[C@H](O)[C@@]4(C)[C@@H]2CC[C@@H]1[C@H]3O | 10.1 µM | 144
O=C(C1=NNCC1c1ccccc1)C1CO1 (stereo not drawn) | 15.8 µM | 87.3
COc1cc(/C=N/Nc2ccccn2)ccc1O | 14.9 µM | 91.1
COc1ccc(N=Cc2c(O)[nH]c3ccccc23)cc1OC | 6.83 µM | 81.8

SMILES | IC50 [1] | inhibition [2] [%]
O=C(OCn1ncc(Br)c(Br)c1=O)c1ccc(F)cc1 | > 20 µM (inactive) | 8.06
O=C(CSc1nnnn1-c1ccc(O)cc1)Nc1cccc(S(=O)(=O)N2CCCC2)c1 | 5.89 µM | 86.9
O=C(Nc1cccc(Cl)c1)N1N=CCC1c1ccccc1 (stereo not drawn) | 16.9 µM | 81.4
Clc1ccc(COn2ccnc2)cc1Cl | 10.9 µM | 82.6
COc1cc(N=Cc2c(O)[nH]c3ccccc23)cc(OC)c1OC | 7.09 µM | 89.1
Cn1nnnc1SCc1ccc(C(=O)Nc2nccs2)cc1 | 16.9 µM | 76.4
Nc1nnnn1/N=C/C(Br)=C/c1ccccc1 | > 20 µM (inactive) | 0.0265
c1ccc2c3c([nH]c2c1)-c1[nH]ncc1CC3 | 0.194 µM | 78.5
CCN(CC)Cc1cc2[nH]c3c4ccc(Cl)cc4ncc3c2cc1OC | > 20 µM (inactive) | 0.811
COc1cc(NC(=O)c2cnc(N)s2)cc(C(=O)Nc2cccc(C(F)(F)F)c2)c1 | 17.4 µM | 75.8
CC(=O)OC[C@]12CCC(C)=C[C@H]1O[C@@H]1[C@H](O)[C@@H](OC(C)=O)[C@@]2(C)[C@]12CO2 | < 0.039 µM | 114
Cn1c(N)c(C(=O)N/N=C/c2ccccc2)sc1=S | 17.3 µM | 76.3
COc1ccc(/C=C2\N=C(SC)NC2=O)cc1 | 5.22 µM | 80.6
CCCc1cc(C(=O)Nc2nccs2)cs1 | 9.59 µM | 76.6
Cc1noc(C)c1/C=N/Nc1ccccn1 | 16.9 µM | 81.6
C[C@H]1C[C@@H](C)C(=O)[C@@H]([C@H](O)CC2CC(=O)NC(=O)C2)C1 | 0.986 µM | 112
CC(=O)Nc1ccc(Sc2ncccc2C(=O)Nc2ccc(OC(F)(F)F)cc2)cn1 | > 20 µM (inactive) | 5.08
Oc1ccc(/C=N/Nc2ccc(C(F)(F)F)cn2)cc1O | 4.19 µM | 87.6
Cn1nc(C(C)(C)C)cc1NC(=O)Nc1cc(Cl)cc(Cl)c1 | > 20 µM (inactive) | 2.91
COc1cc(/C=N/Nc2ccc(C(F)(F)F)cn2)ccc1O | 16.7 µM | 82.3
Cc1ccc2[nH]c3c(c2c1)CCc1cn[nH]c1-3 | 1.29 µM | 82.2
COC(=O)c1ccn(Cc2ccccc2Cl)n1 | 16.3 µM | 81.2

SMILES | IC50 [1] | inhibition [2] [%]
COc1ccc(/C=N/Nc2ccccn2)cc1OC | 16.3 µM | 80.7
O=C(C1=NNCC1c1ccc(Cl)cc1)C1CO1 (stereo not drawn) | 3.69 µM | 103
OCCCNc1nccc(-c2cc(Nc3cccc(Cl)c3)ncn2)n1 | 10.7 µM | 82.7
COc1cc(/C=N/Nc2nc3ccccc3s2)ccc1OC(=O)c1ccccc1F | > 20 µM (inactive) | 1.24
CN(C)S(=O)(=O)c1ccc(Cl)c(NC(=O)CSc2nnnn2-c2ccc(O)cc2)c1 | 17.7 µM | 78.6
Nc1ccccc1Nc1cc(-c2ccccc2)[nH]n1 | 2.78 µM | 90.9
Cc1cn(-c2cc(C(=O)Nc3ccc(C)c(NC(=O)C(=O)c4c[nH]c5ccccc45)c3)cc(C(F)(F)F)c2)cn1 | > 20 µM (inactive) | 1.07
Cc1ccc(C(=O)Nc2cccc(C(F)(F)F)c2)cc1Nc1cnccn1 | 10.8 µM | 74.3
Clc1ccc2[nH]c3c(c2c1)CCc1cn[nH]c1-3 | 2.63 µM | 103
O=C(CSc1nnc(NC2CCCCC2)s1)Nc1ccc2c(c1)C(=O)c1ccccc1C2=O | > 20 µM (inactive) | 0.754
C[C@@H]1C[C@@H]2O[C@H]2/C=C\C=C\C(=O)Cc2c(Cl)c(O)cc(O)c2C(=O)O1 | 0.372 µM | 120
Cc1ccc2c(c1)C(C)CC(C)(C)N2C(=O)NC1CCCCC1 (stereo not drawn) | > 20 µM (inactive) | 1.73
O=C(/C=C/c1cccc(F)c1)Nc1nccs1 | > 20 µM (inactive) | 1.43
CCN(CC)CCn1c2ccccc2c2cnc(N)c(C#N)c21 | 17.7 µM | 68.7
Cc1cnc(NC(=O)c2ccc(OCC3CCCO3)cc2)s1 (stereo not drawn) | 8.49 µM | 74.2
COc1ccc(-n2cnnc2SCC(=O)Nc2cc(C(C)(C)C)nn2-c2ccccc2)cc1 | 4.77 µM | 70
O=C(Nc1nccs1)c1ccc(CSc2nnnn2-c2ccccc2)cc1 | > 20 µM (inactive) | 0.93
Cc1ccc(-c2nc(Nc3ccccc3)n[nH]2)cc1 | > 20 µM (inactive) | 0.11
O=C1Nc2ccccc2/C1=C/c1cnc[nH]1 | 9.67 µM | 85.9
Cc1ccc(NC(=O)CSc2nnnn2-c2ccc3c(c2)OCO3)cc1C | > 20 µM (inactive) | 0.243
